Measured values: US10457707B2, “Substituted urea depsipeptide analogs as activators of the CLPP endopeptidase” (priority 2015, dated 2019)
Values after ≈ are worked out from the molar mass of the structure shown. Where two headings read alike, the source gives them in different places. *1 amine or outer side, *2 acyl side, *3 side chain or, on linkers, in order; H or OH if unused. Where a SMILES comes first, the peptide text is derived from it. Bridges are numbered along the chain shown (N, C = ends). [ ]: non-standard residue; d: D form. The star is where a group is joined. Phe(3,5-F2) = N[C@@H](Cc1cc(F)cc(F)c1)C(=O)O; Pro(4S-Me) = C[C@@H]1CN[C@H](C(=O)O)C1; NHPh(4-CF3) = FC(F)(F)c1ccc(N*)cc1; NH(4-Me-phenyl) = Cc1ccc(N*)cc1; aThr = C[C@H](O)[C@H](N)C(=O)O; Pip = O=C(O)[C@@H]1CCCCN1; CO = O=C([*:1])[*:2]

Assays:
Assay type in all cases: cell-based
[1] = tested on: Enterococcus faecalis, ATCC 33186; assay: Minimal inhibitory concentration assay (microbroth dilution)
Method in brief: (§1)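 Compound is serially diluted two-fold in the appropriate broth, and bacterial inoculum at about 10^5 cfu/mL is added so the highest final concentration is 200 μM. Plates stay overnight at 37 °C under aerobic conditions before growth is scored by eye.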

[2] = tested on: Staphylococcus aureus, ATCC 29213; assay: as above; conditions: ATCC29213, read-out: Minimal Inhibitory Concentrations S. aureus ATCC 29213
Method in brief: as §1

[3] = tested on: Staphylococcus aureus, NRS70; assay: as above
Method in brief: as §1

[4] = tested on: Bacillus subtilis, ATCC 23857; assay: as above
Method in brief: as §1

[5] = tested on: Streptococcus pyogenes, ATCC 700294; assay: as above
Method in brief: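 Plates with two-fold compound dilution series in broth were incubated overnight, aerobically, at 37° C, following CLSI microdilution guidance.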

[6] = tested on: Vero (kidney epithelial cells; ATCC CCL-81); assay: Cytotoxicity assay (CellTiter-Glo cell viability, 72 hours); conditions: Vero cells, 72 hours, growth inhibition; read-out: Cytotoxicity IC50
Method in brief: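 Viability measured by CellTiter-Glo luminescence after 72-hour compound exposure (serial dilutions, DMSO control) of Vero monolayers seeded at 5000 cells/well in 10% FBS DMEM. IC50 values are the range of two biologically independent experiments, each run in duplicate.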

[7] = tested on: Streptococcus pneumoniae, R6; assay: Minimal inhibitory concentration assay; conditions: read-out: Minimal Inhibitory Concentrations S. pneumoniae R6
Method in brief: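 Microbroth dilution with two-fold serial compound dilutions in broth, incubated aerobically overnight at 37° C. MIC taken as the lowest concentration preventing bacterial growth.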

[8] = tested on: Staphylococcus aureus, USA 300; assay: Minimal inhibitory concentration assay; conditions: USA300, read-out: Minimal Inhibitory Concentrations S. aureus USA 300
Method in brief: as §1

[9] = tested on: Staphylococcus aureus, USA 300 wherein ClpP is inactivated; assay: Minimal inhibitory concentration assay
Method in brief: as §1

[10] = tested on: Streptococcus pneumoniae, DAW27; assay: Minimal inhibitory concentration assay (microbroth dilution); conditions: DAW27, read-out: Minimal Inhibitory Concentrations S. pneumoniae DAW27
Method in brief: as §1

[11] = Enterococcus faecalis, ATCC33186, read-out: Minimal Inhibitory Concentrations E. faecalis ATCC 33186
[12] = Staphylococcus aureus, NRS70, read-out: Minimal Inhibitory Concentrations S. aureus NRS70
[13] = Bacillus subtilis, ATCC23857, read-out: Minimal Inhibitory Concentrations B. subtilis ATCC 23857
[14] = Streptococcus pyogenes, ATCC700294, read-out: Minimal Inhibitory Concentrations S. pyogenes ATCC 700294
[15] = Enterococcus faecalis, ATCC33186; read-out: Minimal Inhibitory Concentrations E. faecalis ATCC 33186
[16] = Staphylococcus aureus, NRS70; read-out: Minimal Inhibitory Concentrations S. aureus NRS70
[17] = Bacillus subtilis, ATCC23857; read-out: Minimal Inhibitory Concentrations B. subtilis ATCC 23857
[18] = Streptococcus pyogenes, ATCC700294; read-out: Minimal Inhibitory Concentrations S. pyogenes ATCC 700294

Structure (SMILES) | MIC [1, 11] | MIC [2] | MIC [3, 12] | MIC [4, 13] | MIC [5, 14] | IC50 [6] | MIC [7] | MIC [8] | Minimal Inhibitory Concentrations S. aureus USA 300 ΔClpP [9] | MIC [10] | MIC [1, 15] | MIC [3, 16] | MIC [4, 17] | MIC [5, 18]
Cc1ccc(NC(=O)N[C@@H](Cc2cc(F)cc(F)c2)C(=O)N[C@@H]2C(=O)N3CCC[C@H]3C(=O)N3CCCC[C@H]3C(=O)N[C@@H](C)C(=O)N3C[C@@H](C)C[C@H]3C(=O)O[C@H]2C)cc1 [Compound 18, (S)-3-(3,5-difluorophenyl)-2-(3-(p-tolyl)ureido)-N-((2R,6S,8aS,14aS,20S,21S,23aS)-2,6,21-trimethyl-5,8,14,19,23-pentaoxooctadecahydro-1H,5H,14H,19H-pyrido[2,1-i]dipyrrolo[2,1-c:2′,1′-l][1]oxa[4,7,10,13]tetraazacyclohexadecin-20-yl)propanamide] ({NH(4-Me-phenyl)-CO}-[Phe(3,5-F2)][aThr]P[Pip]A[Pro(4S-Me)]; ester 2-C) | 0.8 µM (≈ 0.646 µg/mL) | 0.1 µM (≈ 0.0808 µg/mL) | 0.1 µM (≈ 0.0808 µg/mL) | < 0.1 µM | < 0.1 µM | 26.7 ± 3.6 µM | < 0.1 µM | 0.1 µM (≈ 0.0808 µg/mL) | 100 µM |  |  |  |  | 
Cc1ccc(NC(=O)N[C@@H](Cc2cc(F)cc(F)c2)C(=O)N[C@@H]2C(=O)N3CCC[C@H]3C(=O)N3CCCC[C@H]3C(=O)N[C@@H](C)C(=O)N3CCC[C@H]3C(=O)O[C@H]2C)cc1 [Compound 15, (S)-3-(3,5-difluorophenyl)-N-((6S,8aS,14aS,20S,21S,23aS)-6,21-dimethyl-5,8,14,19,23-pentaoxooctadecahydro-1H,5H,14H,19H-pyrido[2,1-i]dipyrrolo[2,1-c:2′,1′-l][1]oxa[4,7,10,13]tetraazacyclohexadecin-20-yl)-2-(3-(p-tolyl)ureido)propanamide] ({NH(4-Me-phenyl)-CO}-[Phe(3,5-F2)][aThr]P[Pip]AP; ester 2-C) | 0.3 µM (≈ 0.238 µg/mL) | 0.6 µM (≈ 0.476 µg/mL) | 0.3 µM (≈ 0.238 µg/mL) | < 0.1 µM | 0.6 µM (≈ 0.476 µg/mL) | 39.7 ± 6.6 µM | 0.3 µM (≈ 0.238 µg/mL) | < 0.1 µM | 100 µM |  |  |  |  | 
CN(C)[C@@H]1C(O)=C(C(N)=O)C(=O)[C@@]2(O)C(O)=C3C(=O)c4c(O)cccc4[C@@](C)(O)[C@H]3C[C@@H]12 [Tetracycline, tetracycline, reference compound] |  | 0.1 µM (≈ 0.0444 µg/mL) |  |  |  |  |  | 0.1 µM (≈ 0.0444 µg/mL) |  | 0.1 µM (≈ 0.0444 µg/mL) | 0.05 µM (≈ 0.0222 µg/mL) | 0.05 µM (≈ 0.0222 µg/mL) | 1.6 µM (≈ 0.711 µg/mL) | 0.1 µM (≈ 0.0444 µg/mL)
CCc1ccc(NC(=O)N[C@@H](Cc2cc(F)cc(F)c2)C(=O)N[C@H]2COC(=O)[C@@H]3C[C@@H](C)CN3C(=O)[C@H](C)NC(=O)[C@@H]3CCCCN3C(=O)[C@@H]3CCCN3C2=O)cc1 [Compound 14, (S)-3-(3,5-difluorophenyl)-N-((2R,6S,8aS,14aS,20S,23aS)-2,6-dimethyl-5,8,14,19,23-pentaoxooctadecahydro-1H,5H,14H,19H-pyrido[2,1-i]dipyrrolo[2,1-c:2′,1′-l][1]oxa[4,7,10,13]tetraazacyclohexadecin-20-yl)-2-(3-(4-ethylphenyl)ureido)propanamide] |  | 0.1 µM (≈ 0.0808 µg/mL) |  |  |  |  |  |  |  | 0.04 µM (≈ 0.0323 µg/mL) | 0.04 µM (≈ 0.0323 µg/mL) | 0.08 µM (≈ 0.0646 µg/mL) | 0.08 µM (≈ 0.0646 µg/mL) | 0.8 µM (≈ 0.646 µg/mL)
CCc1cccc(NC(=O)N[C@@H](Cc2ccccc2)C(=O)N[C@H]2COC(=O)[C@@H]3C[C@@H](C)CN3C(=O)[C@H](C)NC(=O)[C@@H]3CCCCN3C(=O)[C@@H]3CCCN3C2=O)c1 [Compound 10, (S)—N-((2R,6S,8aS,14aS,20S,23aS)-2,6-dimethyl-5,8,14,19,23-pentaoxooctadecahydro-1H,5H,14H,19H-pyrido[2,1-i]dipyrrolo[2,1-c:2′,1′-l][1]oxa[4,7,10,13]tetraazacyclohexadecin-20-yl)-2-(3-(3-ethylphenyl)ureido)-3-phenylpropanamide] |  | 0.6 µM (≈ 0.463 µg/mL) |  |  |  |  |  |  |  | 0.3 µM (≈ 0.232 µg/mL) | 0.3 µM (≈ 0.232 µg/mL) | 0.6 µM (≈ 0.463 µg/mL) | 0.6 µM (≈ 0.463 µg/mL) | 0.6 µM (≈ 0.463 µg/mL)
C[C@@H]1C[C@H]2C(=O)OC[C@H](NC(=O)[C@H](Cc3ccccc3)NC(=O)Nc3ccc4c(c3)CCN4C)C(=O)N3CCC[C@H]3C(=O)N3CCCC[C@H]3C(=O)N[C@@H](C)C(=O)N2C1 [Compound 11, (S)—N-((2R,6S,8aS,14aS,20S,23aS)-2,6-dimethyl-5,8,14,19,23-pentaoxooctadecahydro-1H,5H,14H,19H-pyrido[2,1-i]dipyrrolo[2,1-c:2′,1′-l][1]oxa[4,7,10,13]tetraazacyclohexadecin-20-yl)-2-(3-(1-methylindolin-5-yl)ureido)-3-phenylpropanamide] | 0.6 µM (≈ 0.479 µg/mL) | 2.5 µM (≈ 2 µg/mL) | 1.25 µM (≈ 0.999 µg/mL) | 1.25 µM (≈ 0.999 µg/mL) | 0.6 µM (≈ 0.479 µg/mL) | 76 ± 10.6 µM |  |  |  | 0.3 µM (≈ 0.24 µg/mL) |  |  |  | 
C[C@@H]1NC(=O)[C@@H]2CCCCN2C(=O)[C@@H]2CCCN2C(=O)[C@@H](NC(=O)[C@H](Cc2cc(F)cc(F)c2)NC(=O)Nc2ccc(C(F)(F)F)cc2)[C@H](C)OC(=O)[C@@H]2CCCN2C1=O [Compound 16, (S)-3-(3,5-difluorophenyl)-N-((6S,8aS,14aS,20S,21S,23aS)-6,21-dimethyl-5,8,14,19,23-pentaoxooctadecahydro-1H,5H,14H,19H-pyrido[2,1-i]dipyrrolo[2,1-c:2′,1′-l][1]oxa[4,7,10,13]tetraazacyclohexadecin-20-yl)-2-(3-(4-(trifluoromethyl)phenyl)ureido)propanamide] ({NHPh(4-CF3)-CO}-[Phe(3,5-F2)][aThr]P[Pip]AP; ester 2-C) | < 0.1 µM | 0.4 µM (≈ 0.339 µg/mL) | 0.8 µM (≈ 0.678 µg/mL) | 0.4 µM (≈ 0.339 µg/mL) | 1.5 µM (≈ 1.27 µg/mL) | 74.3 ± 9 µM | 0.8 µM (≈ 0.678 µg/mL) | 0.8 µM (≈ 0.678 µg/mL) | 3.1 µM |  |  |  |  | 
C[C@H]1C[C@H]2C(=O)O[C@@H](C)[C@H](NC(=O)[C@H](Cc3cc(F)cc(F)c3)NC(=O)Nc3ccc(C(F)(F)F)cc3)C(=O)N3CCC[C@H]3C(=O)N3CCCC[C@H]3C(=O)N[C@@H](C)C(=O)N2C1 [Compound 19, (S)-3-(3,5-difluorophenyl)-2-(3-(4-(trifluoromethyl)phenyl)ureido)-N-((2R,6S,8aS,14aS,20S,21S,23aS)-2,6,21-trimethyl-5,8,14,19,23-pentaoxooctadecahydro-1H,5H,14H,19H-pyrido[2,1-i]dipyrrolo[2,1-c:2′,1′-l][1]oxa[4,7,10,13]tetraazacyclohexadecin-20-yl)propanamide] ({NHPh(4-CF3)-CO}-[Phe(3,5-F2)][aThr]P[Pip]A[Pro(4S-Me)]; ester 2-C) | 0.39 µM (≈ 0.336 µg/mL) | 0.1 µM (≈ 0.0862 µg/mL) | 0.1 µM (≈ 0.0862 µg/mL) | < 0.1 µM | 0.4 µM (≈ 0.345 µg/mL) | 36.8 ± 4.1 µM | 0.8 µM (≈ 0.689 µg/mL) | 0.1 µM (≈ 0.0862 µg/mL) | 6.2 µM |  |  |  |  | 
C[C@@H]1C[C@H]2C(=O)OC[C@H](NC(=O)[C@H](Cc3cc(F)cc(F)c3)NC(=O)Nc3ccc(OC(F)(F)F)cc3)C(=O)N3CCC[C@H]3C(=O)N3CCCC[C@H]3C(=O)N[C@@H](C)C(=O)N2C1 [Compound 13, (S)-3-(3,5-difluorophenyl)-N-((2R,6S,8aS,14aS,20S,23aS)-2,6-dimethyl-5,8,14,19,23-pentaoxooctadecahydro-1H,5H,14H,19H-pyrido[2,1-i]dipyrrolo[2,1-c:2′,1′-l][1]oxa[4,7,10,13]tetraazacyclohexadecin-20-yl)-2-(3-(4-(trifluoromethoxy)phenyl)ureido)propanamide] |  | 0.05 µM (≈ 0.0432 µg/mL) |  |  |  |  |  |  |  | 0.04 µM (≈ 0.0346 µg/mL) | 0.04 µM (≈ 0.0346 µg/mL) | 0.8 µM (≈ 0.691 µg/mL) | 0.08 µM (≈ 0.0691 µg/mL) | 0.15 µM (≈ 0.13 µg/mL)
